# Data reported in patent US6740335B1, “Liposomal camptothecin formulations” (priority 1997, dated 2004).
# Counter-ions that a name gives are not always drawn.
# Legend:
# A673 (Rhabdomyosarcoma) = assay: 3H-thymidine incorporation cytotoxicity assay, A673; assay type: cell-based, human; conditions: Homo sapiens, A673, 24 h; read-out: Median IC50
# Protocol: (§1) In vitro efficacy screening has been performed using GI147211 and liposomal formulations of GI147211. […] Standard tumor cell-based cytototoxicity assays assessing ^3H-thymidine incorporation were performed.
# (§2) Tumor cells were seeded into 96-well tissue culture plates (1×10^4 cells/well)≡4 h prior to experimentation. […] Positive and negative (Tris treated) control groups were included on each assay plate. Tumor cells were then labeled with 0.25 μCi of [methyl-^3H] thymidine and incubated for 42 h under tissue culture conditions (37° C., 5% CO2, 100% relative humidity), except for C6, U251, A673 and B16-F1 cells which were incubated for 24 h. Cells were then lysed, harvested onto glass-fiber filters and unincorporated [methyl-^3H] thymidine removed by filter washing. Filters were processed for scintillation counting and cpm-^3H/well determined. […] Data are presented from multiple sets of experimentation, involving multiple liposomal formulations of GI147211.
# [1] = Plasma pharmacokinetics in Sprague-Dawley rats after IV dose; conditions: rat, in vivo
# Protocol: The pharmacokinetics were then compared for free drug and membrane entrapped GI147211 liposomes dosed at 5 mg/kg in Sprague Dawley rats. Rats were dosed at 1 mg/kg to compare free GI147211 to passive and actively loaded liposomes.
# Pharmacokinetic studies were carried out on various liposomal formulations of GI147211 in rats and mice by IV bolus administration. Plasma samples were precipitated with acetonitrile and the supematant for each sample was analyzed by reverse phase HPLC using isocratic elution and monitoring fluorescence. […] Concentration values were determined for unknown samples and quality control samples based on interpolation using a linear fit of the standard samples. In each study the average plasma concentration at each time point was calculated and utilized in the pharmacokinetic analysis. Noncompartmental analysis were carried out using WinNonlin™ (Standard Edition, version 1.5 ©, Scientific Consulting, Inc.) and the following parameters were calculated: the maximum concentration extrapolated at zero time (Cmax), the area under the curve from zero to infinite time (AUC total), the terminal phase half life (t½), the clearance rate (C1), and the volume of distribution at steady state (Vss).
# A549 (lung carcinoma) = assay: 3H-thymidine incorporation cytotoxicity assay, A549; assay type: cell-based; conditions: Homo sapiens, A549, 42 h; read-out: Median IC50
# Protocol: as §1, §2
# [2] = Precipitation of GI147211 with counterion excipients (HPLC of supernatant); assay type: physicochemical
# Protocol: The excipients include, but are not limited to, the acid, sodium or ammonium forms of monovalent anions such as chloride, acetate, lactobionate and formnate; divalent anions such as succinate, aspartate and sulfate; and trivalent ions such as citrate and phosphate. To assess the relative degree of precipitation brought about with each excipient, 5 mg/ml solutions of GI147211 were prepared at low pH (2±0.5) and different counterions were added. The solutions of GI147211 and counterion were allowed to stand for 15 to 20 minutes, then centrifuiged at 3600 rpm for 10 minutes to isolate the precipitate. The quantity of GI147211 remaining in solution for each sample was then assessed by assaying the supernatants using HPLC with the following conditions: C18 ODS Hypersil column from Keystone, mobile phase of 30/70 (v/v) acetonitrile/0.1% acetic acid +0.1% aqueous triethylamine buffer, pH 3.30 with LTV detection at 270 nm. The amount of GI147211 precipitated was also tabulated by the taking the difference of the concentration of the remaining soluble fraction from Smg/ml, the original GI1147211 concentration in solution. Each number is expressed in Table 6 as percentage of the original solution concentration of 5 mg/ml.
# To more fully explore the concentration dependence of GI147211 precipitation, 5 mg/ml solutions of the drug were prepared as described in Example 3 and titrated with increasing concentrations of the counterion excipients sulfate, citrate, phosphate and chloride. The solutions of GI147211 and counterion were allowed to stand for 15 to 20 minutes, then centrifuged at 3600 rpm for 10 minutes to isolate the precipitate and the supernatants were assayed as described in Example 3.
# In a separate study, precipitation of the camptothecin GI147211 was examined at the predicted concentration in the interior of the liposome (approx. 40 mg/ml camptothecin GI147211) after loading in the presence of 50 mM ammonium sulfate.
# [3] = test system: KBV Head/Neck Tumor MDR +; assay type: in vivo
# Protocol: In all the studies performed, subcutaneous tumors implanted on the anterior flank of nude mice were allowed to grow to an established size of 200+/−50 mm^3 prior to dosing drugs.
# The xenograft models included the HT29 and SW48 human colon tumor lines, and the KB and KBV head-neck tumors. Drugs were dosed at either 6 or 9 mg/kg intravenously, on a weekly schedule for 3 consecutive weeks. In the SW48 xenograft study, the animals received a total of two cycles of therapy (6 injections), with a 10 day recovery period separating the two therapeutic courses. In the HT29 xenograft study a 12 and 14 mg/kg dose group was added.
# MDA-MB-468 (Breast) = assay: 3H-thymidine incorporation cytotoxicity assay, MDA-MB-468; assay type: cell-based, human; conditions: Homo sapiens, MDA-MB-468, 42 h; read-out: Median IC50
# Protocol: as §1, §2
# KB Tumor Xenograft = assay: Repeat dose efficacy, KB xenograft; assay type: in vivo, nude mice; conditions: 14 mg/kg
# Protocol: Drugs were dosed on days 1,8 and 15.
# [4] = test system: DU-145 (prostate carcinoma); assay: 3H-thymidine incorporation cytotoxicity assay, DU-145; assay type: cell-based, human; conditions: Homo sapiens, DU-145, 42 h; read-out: Median IC50
# Protocol: as §1, §2
# [5] = 5 mg/ml GI147211, pH 2±0.5, aspartate 50 mM
# [6] = 5 mg/ml GI147211, pH 2±0.5, chloride 100 mM
# [7] = 5 mg/ml GI147211, pH 2±0.5, citrate 20 mM
# [8] = 5 mg/ml GI147211, pH 2±0.5, citrate 50 mM
# [9] = 5 mg/ml GI147211, pH 2±0.5, formate 50 mM
# [10] = 5 mg/ml GI147211, pH 2±0.5, lactobionate 50 mM
# [11] = 5 mg/ml GI147211, pH 2±0.5, phosphate 100 mM
# [12] = 5 mg/ml GI147211, pH 2±0.5, succinate 500 mM
# [13] = 5 mg/ml GI147211, pH 2±0.5, sucrose 300 mM
# [14] = 5 mg/ml GI147211, pH 2±0.5, sulfate 20 mM
# [15] = 5 mg/ml GI147211, pH 2±0.5, sulfate 50 mM
# [16] = approx. 40 mg/ml GI147211, 50 mM ammonium sulfate
structure (smiles),measurement,setting,value
"CCC1(O)C(=O)OCc2c1cc1n(c2=O)Cc2c-1nc1cc3c(cc1c2CN1CCN(C)CC1)OCCO3 (stereo in doubt) [GI147211, 7-(4-methylpiperazinomethylene)-10,11-ethylenedioxy-20(S)-camptothecin dihydrochloride]",IC50,A673 (Rhabdomyosarcoma),0.58 ng/mL
same,AUC,[1]; 1 mg/kg,136 ng·h/mL
same,Cmax,[1]; 1 mg/kg,100 ng/mL
same,Vd,[1]; 1 mg/kg,9.23 L/kg
same,clearance,[1]; 1 mg/kg,123 mL/min/kg
same,half-life,[1]; 1 mg/kg,1.17 h
same,AUC,[1]; 5 mg/kg,640 ng·h/mL
same,Cmax,[1]; 5 mg/kg,690 ng/mL
same,clearance,[1]; 5 mg/kg,132 mL/min/kg
same,half-life,[1]; 5 mg/kg,2.45 h
same,IC50,A549 (lung carcinoma),6.94 ng/mL
same,% GI147211 Precipitated,[2]; [5],57.8%
same,% GI147211 Remaining in Solution,[2]; [5],42.2%
same,% GI147211 Precipitated,[2]; [6],85.2%
same,% GI147211 Remaining in Solution,[2]; [6],14.8%
same,% GI147211 Precipitated,[2]; [7],98.8%
same,% GI147211 Remaining in Solution,[2]; [7],1.2%
same,% GI147211 Precipitated,[2]; [8],99.1%
same,% GI147211 Remaining in Solution,[2]; [8],0.9%
same,% GI147211 Precipitated,[2]; [9],64.7%
same,% GI147211 Remaining in Solution,[2]; [9],35.3%
same,% GI147211 Precipitated,[2]; [10],6.2%
same,% GI147211 Remaining in Solution,[2]; [10],93.8%
same,% GI147211 Precipitated,[2]; [11],82.3%
same,% GI147211 Remaining in Solution,[2]; [11],17.7%
same,% GI147211 Precipitated,[2]; [12],98.8%
same,% GI147211 Remaining in Solution,[2]; [12],1.2%
same,% GI147211 Precipitated,[2]; [13],8.2%
same,% GI147211 Remaining in Solution,[2]; [13],91.8%
same,% GI147211 Precipitated,[2]; [14],97.9%
same,% GI147211 Remaining in Solution,[2]; [14],2.1%
same,% GI147211 Precipitated,[2]; [15],98.1%
same,% GI147211 Remaining in Solution,[2]; [15],1.9%
same,drug precipitated,[2]; [16],~99%
same,remained in solution,[2]; [16],0.5%
same,drug precipitated,[2]; chloride and phosphate,greater than 82%
same,drug precipitated,[2]; formate and aspartate,greater than 55%
same,drug precipitated,[2]; sucrose and lactobionate,less than 10%
same,drug precipitated,"[2]; sulfate, citrate, and succinate",greater than 97%
same,Log 10 Cell Kill,"[3]; KBV, 9 mg/kg iv, QD7 × 3",0.125
same,"T-C (time to reach 1,000% Tumor Volume, treated vs control)","[3]; KBV, 9 mg/kg iv, QD7 × 3",2 days
same,% TGI,"[3]; KBV, 9 mg/kg iv, QD7 × 3, day 18",11%
same,activity in the MDR+ tumor model KBV,[3]; identical dose and schedule,essentially inactive
same,IC50,MDA-MB-468 (Breast),6.42 ng/mL
same,% TGI,KB Tumor Xenograft; day 15,83%
same,Mean Tumor Volume +/− (SD),"KB Tumor Xenograft; days 1, 8 and 15",275 (67)
same,Toxic Deaths,"KB Tumor Xenograft; days 1, 8 and 15",0/8
same,IC50,[4],1.61 ng/mL
